Experimental data reported in the supplement of paper PMC8882468.
± gives the standard deviation of the averaged measurements.

Experiments:
Assay in all cases: CTG-3D luminescence at 96 h relative to day-0 seeding control (ratio to day 0); higher = more growth / less cytotoxicity; PDxO 3D drug screen, 96 h, CTG-3D normalised to day-0 seeding control.
HCI-016 = tested on: HCI-016 (organoid from a triple-negative breast cancer xenograft)
HCI-011.E2 = tested on: HCI-011.E2 (organoid from an ER-positive breast cancer xenograft)
HCI-005.E2 = tested on: HCI-005.E2 (organoid from a breast cancer xenograft with a HER2-positive history)
HCI-019 = tested on: HCI-019 (organoid from a triple-negative breast cancer xenograft)
HCI-003.E2 = tested on: HCI-003.E2 (organoid from an ER-positive breast cancer xenograft)
HCI-025 = tested on: HCI-025 (organoid from a breast cancer xenograft)

CCc1c2c(nc3ccc(O)cc13)-c1cc3c(c(=O)n1C2)COC(=O)[C@]3(O)CC [SN-38]
CTG-3D luminescence at 96 h
Details	12.5 pM	0.00025 µM	0.005 µM	0.1 µM	1 µM	10 µM	100 µM	625 fM
HCI-011.E2, days in culture: 74	2.34	1.84	2.09	1.85	1.06	0.399	0.23	2.21
HCI-016, days in culture: 153	2.8	1.73	1.68	0.253	0.0495	0.0432	0.0259	2.02
HCI-016, days in culture: 172	2.16	2.11	1.21	0.157	0.0512	0.021	0.019	1.22
HCI-016, days in culture: 190	1.83	1.12	1.17	0.151	0.0473	0.0272	0.0195	1.25
HCI-016, days in culture: 199	1.87	1.62	1.36	0.126	0.0472	0.0229	0.0167	1.92
HCI-019, days in culture: 110	1.82	1.78	0.471	0.295	0.238	0.127	0.0625	2.53
HCI-019, days in culture: 131	3.04	2.79	0.948	0.312	0.308	0.107	0.169	3.56
HCI-019, days in culture: 152	3.21	3.38	1.51	0.48	0.521	0.106	0.0856	2.26
HCI-025, days in culture: 172	3.42	1.7	2.12	0.486	0.295	0.0768	0.0418	2.35
HCI-025, days in culture: 209	1.97	2.36	1.12	0.295	0.181	0.0722	0.0384	1.53
HCI-025, days in culture: 218	1.5	1.73	0.75	0.244	0.0898	0.0616	0.0407	1.53

CTG-3D luminescence at 96 h
Details	12.5 pM	0.00025 µM	0.005 µM	0.1 µM	1 µM	10 µM	100 µM	625 fM
HCI-003.E2	2.07 ± 0.86	2.06 ± 0.55	1.68 ± 0.41	1.64 ± 0.19	1.24 ± 0.17	0.339 ± 0.13	0.213 ± 0.061	1.94 ± 0.31
HCI-005.E2	1.65 ± 0.44	1.65 ± 0.42	1.41 ± 0.21	1.38 ± 0.29	1.17 ± 0.038	0.21 ± 0.15	0.199 ± 0.13	1.65 ± 0.18
HCI-011.E2	1.25 ± 0.19	1.54 ± 0.31	1.4 ± 0.3	1.48 ± 0.27	0.834 ± 0.32	0.362 ± 0.068	0.218 ± 0.021	1.46 ± 0.42

CCN1CCN(Cc2ccc(Nc3ncc(F)c(-c4cc(F)c5nc(C)n(C(C)C)c5c4)n3)nc2)CC1 [abemaciclib]
CTG-3D luminescence at 96 h
Details	12.5 pM	0.00025 µM	0.005 µM	0.1 µM	1 µM	10 µM	100 µM	625 fM
HCI-011.E2, days in culture: 74	1.84	2.83	2.59	2.7	2.61	1.72	0.00196	2.79
HCI-016, days in culture: 153	2.82	2.09	2.87	1.71	1.14	0.355	0.0128	2.64
HCI-016, days in culture: 172	2.12	1.72	1.43	1.67	1.25	0.322	0.0115	1.34
HCI-016, days in culture: 190	1.98	1.4	1.32	1.35	1.26	0.196	0.00813	1.43
HCI-016, days in culture: 199	1.89	1.75	2.03	1.74	1.21	0.0238	0.00916	1.85
HCI-019, days in culture: 110	2.26	1.44	1.96	2.43	1.42	0.433	0.016	2.64
HCI-019, days in culture: 131	2.45	3.28	2.99	4.2	2.75	1.9	0.0216	2.87
HCI-019, days in culture: 152	3.44	2.78	2.45	2.58	2.13	0.0403	0.012	2.48
HCI-025, days in culture: 172	3.01	1.55	3.2	2.1	2.55	1.91	0.0181	2.18
HCI-025, days in culture: 209	2.03	1.8	1.98	2.2	2.46	1.27	0.0124	1.49
HCI-025, days in culture: 218	1.37	1.71	1.83	1.55	1.46	1.84	0.0142	1.33

CTG-3D luminescence at 96 h
Details	12.5 pM	0.00025 µM	0.005 µM	0.1 µM	1 µM	10 µM	100 µM	625 fM
HCI-003.E2	2.17 ± 0.76	2.14 ± 0.51	2.02 ± 0.48	2.27 ± 0.32	1.98 ± 0.34	0.491 ± 0.5	0.00596 ± 0.0057	1.87 ± 0.25
HCI-005.E2	1.99 ± 0.22	2.57 ± 0.33	2.09 ± 0.054	1.96 ± 0.25	1.61 ± 0.21	1.43 ± 0.33	0.00876 ± 0.0031	2.12 ± 0.21
HCI-011.E2	1.49 ± 0.15	1.5 ± 0.36	1.57 ± 0.25	1.9 ± 0.079	1.52 ± 0.63	1.04 ± 0.38	0.00535 ± 0.0021	1.6 ± 0.63
